Consider nine compounds from patent publication EP4596561A1, “PHOSPHORUS-CONTAINING COMPOUND, PHARMACEUTICAL COMPOSITION AND USE THEREOF” (Suzhou Genhouse Bio Co., Ltd., priority 2022, dated 2024).

Broadly, the half-life is how long it takes for the measured level to halve. Higher therefore signals slow decline. What is called AUC(0-t) is the area under the concentration-time curve up to a stated or last time point. The MRT is a mean duration of stay, worked out from the concentration-time curve. One may read the clearance as a measure of how efficiently the substance is removed, as volume per time.

The nature of data set [1]: Stability test in liver microsomes. Type of data set: in vitro ADME, SD rat. The conditions noted are these: rat liver microsomes, 0.5 mg/mL, 1.0 µM substrate. The protocol: (§1) Phase I metabolic stability of the test compounds in liver microsomes of CD-1 mice, Sprague-Dawley rats, and humans was assessed.
(§2) The animal and human liver microsomes used in the test system were purchased from Xenotech, Corning, or other qualified suppliers and stored in a freezer at a temperature below -60 °C prior to use. The information of the animal and human liver microsomes used was as follows:
(§3) The test samples and the reference compounds were separately incubated with animal and human liver microsomes at 37±1 °C for a period of incubation time of up to 60 min. The samples were taken out at the indicated time points, and the reaction was stopped with acetonitrile or another organic solvent containing an internal standard. After centrifugation, the resulting supernatants were assayed by the liquid chromatography-tandem mass spectrometry (LC-MS/MS) method.
(§4) Microsomes of each species were diluted into a 2× working solution with a 100 mM potassium phosphate buffer. […]
(§5) Incubation was performed in a 96-well plate. Eight incubation plates were prepared and designated T0, T5, T15, T30, T45, T60, Blank60, and NCF60, respectively. The first 6 plates corresponded to reaction time points of 0 min, 5 min, 15 min, 30 min, 45 min, and 60 min, respectively. No test sample or reference compound was added to the Blank60 plate, and samples were taken after 60 min of incubation. In the NCF60 plate, incubation was performed for 60 min using the potassium phosphate buffer instead of the NADPH regeneration system solution. Three replicates were made for samples in all conditions.
(§6) The microsomes and the test sample or reference compound were mixed, and then the incubation plates Blank60, T5, T15, T30, T45, and T60 except for T0 and NCF60 were placed in a 37 °C water bath for pre-incubation for about 10 min. In the incubation plate T0, a stop solution was first added, followed by the addition of the NADPH regeneration system working solution, and 98 µL of the potassium phosphate buffer was added to each sample well of the incubation plate NCF60 to initiate the reaction. After the pre-incubation of the incubation plates Blank60, T5, T15, T30, T45, and T60 was completed, 98 µL of the NADPH regeneration system working solution was added to each sample well to initiate the reaction. The reaction temperature was 37±1 °C, the final volume of the reaction was 200 µL, and the reaction system included 0.5 mg/mL microsomes, 1.0 µM substrate, 1 mM NADP, 6 mM ISO, and 1 unit/mL IDH.
(§7) At 5 min, 15 min, 30 min, 45 min, and 60 min, a cold stop solution containing an internal standard was added to the reaction plate to stop the reaction.
(§8) All the reaction plates after the reaction was stopped were shaken well and centrifuged at 3220× g at 4 °C for 20 min. After the supernatant was diluted at a certain ratio, LC-MS/MS analysis was performed.
(§9) Sample analysis was performed by the liquid chromatography-tandem mass spectrometry (LC-MS/MS) method without standard curves and quality control samples. Semi-quantitative determination was performed according to the ratio of the analyte peak area to the internal standard peak area. The retention times of the analyte and internal standard, the chromatogram acquisition, and chromatogram integration were processed using the Analyst software (Sciex, Framingham, Massachusetts, USA).
(§10) According to the well stir model, the hepatic intrinsic clearance and hepatic clearance can be converted through the following formula. CL(liver) = (CLint(liver)×Qh)/(CLint(liver)+Qh) [formula]

Data set [2] is described as follows: Stability test in liver microsomes. Type of data set: in vitro ADME, CD-1 mouse. Particulars: mouse liver microsomes, 0.5 mg/mL, 1.0 µM substrate. The protocol: as §1, §2, §3, §4, §5, §6, §7, §8, §9, §10
The nature of data set [3]: Pharmacokinetic test in rats. Type of data set: in vivo. Particulars: rat, plasma, SD rats; for bioavailability: PO 10 mg/kg vs IV 2 mg/kg. The protocol: In this experimental example, the pharmacokinetic behavior of the test compounds after administration by intravenous injection (IV) and oral gavage (PO) in SD rats was tested. Preparation of formulations for administration referred to the low-dose pharmacokinetic test in mice.
On the day of administration, rats were weighed for actual body weight, and the administration volume was calculated. Each compound was tested in two groups with 3 rats in each group; one group was subjected to administration by single intravenous injection, and the other group was subjected to administration by single gavage. The whole blood samples were collected via the jugular vein at prescribed time points (0.25 h, 0.5 h, 1 h, 2 h, 4 h, 8 h, and 24 h after administration). After the blood sample collection, the samples were immediately transferred to labeled commercial sample tubes containing K2-EDTA (0.85-1.15 mg), followed by centrifugation (3200× g, 4 °C, 10 min) and plasma collection. The plasma was transferred to a pre-cooled centrifuge tube, frozen in dry ice, and then stored in an ultra-low temperature freezer at -60 °C or lower until the LC-MS/MS analysis was performed.
Plasma concentrations were determined by the LC-MS/MS method. Plasma drug concentration data for the compounds were processed using a non-compartmental model in the WinNonlin Version 6.3 (Pharsight, Mountain View, CA) pharmacokinetic software. The relevant pharmacokinetic parameters were calculated by a linear-log trapezoidal method.

The next data set deals with H226 cells. Nature of the data set: Pharmacodynamic test, H226 subcutaneous xenograft. Type of data set: in vivo, nude mice (BALB/c nu/nu). The protocol: Healthy female nude mice (BALB/c nu/nu) aged 6-8 weeks were housed in an SPF environment in accordance with animal ethical guidelines. The well-growing 10^7 H226 cells were harvested through trypsin digestion, washed in phosphate-buffered saline (PBS), and then resuspended in PBS containing 50% matrigel (BD Biosciences).
Subcutaneous injection was then performed at the dorsolateral sites of the mice, and the tumor volume was measured once every three days thereafter. When the tumor volume reached around 150-200 mm^3, the mice were randomly assigned to different treatment groups. Any one of the compounds described herein was prepared accordingly and administered at an appropriate dose. Finally, the tumor growth in the nude mice was analyzed after 4 to 6 weeks based on the growth of the tumors.

The nature of data set [4]: Saturated solubility in FaSSIF solution. Particulars: room temperature, stirred overnight. The class given is physicochemical. The protocol: Efficacy Experimental Example 9: Test of Saturated Solubility of Samples in FaSSIF Solution
About 0.21 g of sodium hydroxide, about 2.24 g of sodium dihydrogen phosphate dihydrate, and 3.09 g of sodium chloride were weighed out and dissolved in 500 mL of water, and after dissolution, the pH was adjusted to 6.5 with 1 N sodium hydroxide or 1 N hydrochloric acid.
112 mg of FaSSIF solid was weighed out and placed in a 50 mL volumetric flask, and the buffer described above was added for dissolution. The resulting solution was diluted to volume, mixed well, and left to stand at room temperature for 2 h or more.
Test sample: About 1 mg of the test sample was taken, and 1 mL of FaSSIF solution was added. The mixture was stirred at room temperature overnight and centrifuged, and the supernatant was collected and injected for analysis.
Reference sample solution: About 1.5 mg of the test sample was precisely weighed out and placed in a 50 mL volumetric flask, and DMF was added for dissolution. The resulting solution was diluted to volume and mixed well.
The peak of the main component of the reference sample and the peak of the test sample with the same retention time were integrated, and the concentration thereof in the FaSSIF solution was calculated according to the external standard method.

Consider `CP(C)(=O)c1ccc2c(c1)c1ccccc1n2-c1ccc(C(F)(F)F)cc1` [Example 1], for which the half-life at 1 µM in data set [1] was above 2.42 h. In addition, the half-life at 1 µM in data set [2] is above 2.42 h. In data set [3] (IV 2 mg/kg), this compound gave an AUC(0-t) of 113 µM·h, an MRT of 46.3 h, a clearance of 0.333 mL/min/kg and a half-life of 32.4 h. In data set [3] (PO 10 mg/kg), this compound gave an AUC(0-t) of 605 µM·h, an MRT of 69.9 h and a half-life of 66.9 h. For the same compound, the bioavailability in data set [3] worked out at 107%. In the data set with H226 cells (50mpk QD), the TGI is 50mpk QD TGI = 108.39%. The TGI in the data set with H226 cells (100mpk QD) is 100mpk QD TGI = 113.05%. The “FaSSIF(pH = 6.5)” value in data set [4] is reported as above 950.5 ug/mL.

Regarding `CP(C)(=O)c1ccc2c(c1)c1cccnc1n2-c1ccc(C(F)(F)F)cc1` [Example 5], the “FaSSIF(pH = 6.5)” value in data set [4] is reported as 781.7 ug/mL.

Regarding `CP(C)(=O)c1ccc2c(Oc3ccc(C(F)(F)F)cc3)cccc2c1` [Example 7], the half-life at 1 µM in data set [1] was above 2.42 h. The half-life at 1 µM in data set [2] was above 2.42 h. Also, in data set [3] (IV 2 mg/kg), the AUC(0-t) was 44.5 µM·h, the MRT was 20.5 h, the clearance is 2 mL/min/kg and the half-life was 15.7 h. In data set [3] (PO 10 mg/kg), this compound showed an AUC(0-t) of 308 µM·h, an MRT of 28.5 h and a half-life of 19.5 h. In addition, the bioavailability in data set [3] came to 142%. The TGI in the data set with H226 cells (5mpk QD) came to 5mpk QD TGI = 111.84%. Moreover, the “FaSSIF(pH = 6.5)” value in data set [4] is 1499.5 ug/mL.

In data set [1], `Cn1cnc(-c2cc(P(C)(C)=O)cnc2Nc2ccc(C(F)(F)F)cc2)c1` [Example 8] returned a half-life at 1 µM above 2.42 h. In data set [2], this compound displayed a half-life at 1 µM above 2.42 h. Also, in data set [3] (IV 2 mg/kg), the AUC(0-t) is 8.89 µM·h, the MRT came to 7.8 h, the clearance is 9 mL/min/kg and the half-life is 6.2 h. In data set [3] (PO 10 mg/kg), the AUC(0-t) was 59.3 µM·h, the MRT turned out to be 20.6 h and the half-life is 14.7 h. For the same compound, the bioavailability in data set [3] amounted to 133%. Moreover, the TGI in the data set on H226 cells (10mpk QD) is reported as 10mpk QD TGI = 115.60%. Also, the “FaSSIF(pH = 6.5)” value in data set [4] amounted to 433.97 ug/mL.

`CP(C)(=O)c1ccc(Nc2ccc(C(F)(F)F)cc2)c(-c2ccccn2)c1` [Example 10] had a half-life at 1 µM in data set [1] above 2.42 h. The compound further had a half-life at 1 µM in data set [2] above 2.42 h. In data set [3] (IV 2 mg/kg), this compound had an AUC(0-t) of 21.7 µM·h, an MRT of 26.5 h, a clearance of 3 mL/min/kg and a half-life of 19 h. In data set [3] (PO 10 mg/kg), this compound gave an exposure AUC(0-t) of 152 µM·h, an MRT of 25.7 h and a half-life of 17.8 h. Further, in data set [3], the bioavailability was 140%. Besides, the TGI in the data set with H226 cells (25mpk QD) is given as 25mpk QD TGI = 100.89%. Moreover, the “FaSSIF(pH = 6.5)” value in data set [4] turned out to be 89.75 ug/mL.

In data set [1], `CP(C)(=O)c1ccc(Nc2ccc(C(F)(F)F)cc2)c(-c2ncccn2)c1` [Example 12] had a half-life at 1 µM above 2.42 h. For the same compound, the half-life at 1 µM in data set [2] was above 2.42 h. In data set [3] (IV 2 mg/kg), this compound gave an AUC(0-t) of 34.9 µM·h, an MRT of 76.3 h, a clearance of 1.17 mL/min/kg and a half-life of 54.2 h. Further, in data set [3] (PO 10 mg/kg), the exposure AUC(0-t) is 114 µM·h, the MRT was determined as 24.9 h and the half-life was 21.8 h. For the same compound, the bioavailability in data set [3] was 65%. In the data set on H226 cells (50mpk QD), the TGI is listed as 50mpk QD TGI = 111.58%.

`Cn1cnc(-c2cc(P(C)(C)=O)ccc2Nc2ccc(C(F)(F)F)cc2)c1` [Example 14] had a half-life at 1 µM in data set [1] above 2.42 h. Moreover, the half-life at 1 µM in data set [2] is above 2.42 h. In data set [3] (IV 2 mg/kg), the AUC(0-t) came out at 16.9 µM·h, the MRT worked out at 10.2 h, the clearance was 4.67 mL/min/kg and the half-life is 8.1 h. For the same compound, in data set [3] (PO 10 mg/kg), the AUC(0-t) was 83.2 µM·h, the mean residence time MRT worked out at 15 h and the half-life is 10.9 h. Also, the bioavailability in data set [3] was determined as 98%. Also, the TGI with H226 cells (10mpk QD) turned out to be 10mpk QD TGI = 100.38%. In data set [4], the “FaSSIF(pH = 6.5)” value worked out at 674.6 ug/mL.

In data set [1], `CP(C)(=O)c1cnc(Nc2ccc(C(F)(F)F)cc2)c(-c2cn3c(n2)CCC3)c1` [Example 22] showed a half-life at 1 µM above 2.42 h. For the same compound, the half-life at 1 µM in data set [2] was above 2.42 h. Moreover, in data set [3] (IV 2 mg/kg), the area under the curve AUC(0-t) is 6.42 µM·h, the mean residence time (MRT) turned out to be 7.6 h, the clearance was 11 mL/min/kg and the half-life was 5.8 h. In data set [3] (PO 10 mg/kg), this compound showed an AUC(0-t) of 32.2 µM·h, an MRT of 9.6 h and a half-life of 7.3 h. In addition, in data set [3], the bioavailability turned out to be 95%. The TGI in the data set on H226 cells (10mpk QD) is given as 10mpk QD TGI = 106.26%. In addition, the TGI in the data set with H226 cells (30mpk QD) was 30mpk QD TGI = 113.45%. Besides, the “FaSSIF(pH = 6.5)” value in data set [4] turned out to be 337.6 ug/mL.

With `Cc1ccc(Oc2ccc(C(F)(F)F)cc2)c2ccc(P(C)(C)=O)cc12` [Example 24], the values for the half-life at 1 µM in data set [1] and in data set [2] were 1.37 h and 1.98 h, respectively. In addition, in data set [4], the “FaSSIF(pH = 6.5)” value stood at 193.3 ug/mL.
